# Results reported in patent US20260285846A1, “REV-ERB AGONISTS FOR TH17-MEDIATED INFLAMMATORY DISORDERS” (UNIVERSITY OF FLORID RESEARCH FOUNDATION, iNCORPORATED, priority 2021, published 2026).
# Target: REV-ERBα LBD (Homo sapiens, UniProt P20393, DEL324-422)
# Assay: biochemical
# Details: FRET assay; 6xHistag-REV-ERBα LBD with FITC-labeled SMRT corepressor peptide; read-out: REVERBα (Agonism of REV-ERBα, EC50)
# Method: TR-FRET corepressor interaction assay. The time-resolved fluorescence resonance energy transfer (TR-FRET) assay was performed in black low-volume 384-well plates (Greiner). Each well contained 4 nM 6×Histag-REV-ERBα LBD (human; residues 281-614 A324-422) or 6×Histag-REV-ERBα LBD (human; residues 381-579) protein expressed in and purified from Escherichia coli using nickel affinity and size exclusion chromatography; 1 nM LanthaScreen Elite Tb-anti-HIS Antibody (Thermo Fisher Scientific); and 400 nM FITC-labeled peptide derived from the SMRT corepressor ([…]) containing a N-terminal FITC label with a six-carbon linker (Ahx) and an amidated C-terminus for stability (synthesized by LifeTein) in TR-FRET buffer (20 mM potassium phosphate, pH 7.4, 50 mM potassium chloride, 1 mM dithiothreitol, and 0.005% Tween-20). Ligand stocks were prepared via serial dilution in DMSO, added to wells in triplicate, and plates were incubated at 4° C. for 2 h and read using a BioTek Synergy Neo multimode plate reader. The Tb donor was excited at 340 nm; its fluorescence emission was monitored at 495 nm, and the acceptor FITC emission was measured at 520 nm; and the TR-FRET ratio was calculated as the signal at 520 nm divided by the signal at 495 nm. Data were plotted using GraphPad Prism as TR-FRET ratio vs. ligand concentration and fit to sigmoidal dose response curve equation.
# Exemplary compounds of the present disclosure were assayed as described above to assess agonism of REV-ERBα. Results of the FRET assay are shown in Table 2 below (A: EC50<100 nM; B: EC50 100 nM-1000 nM; C: EC50>1000 nM; NT: not tested).
# Chain of REV-ERBα LBD (P20393 with tags, fused parts or gaps DEL324-422): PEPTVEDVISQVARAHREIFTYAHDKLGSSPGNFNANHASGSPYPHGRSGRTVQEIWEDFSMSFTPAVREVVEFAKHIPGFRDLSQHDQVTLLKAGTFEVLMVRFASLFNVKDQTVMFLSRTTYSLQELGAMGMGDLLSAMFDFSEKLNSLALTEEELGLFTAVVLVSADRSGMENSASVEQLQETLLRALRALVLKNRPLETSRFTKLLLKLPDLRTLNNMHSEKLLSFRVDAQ
# Chain of REV-ERBα LBD (Q9Y618 2335-2356 partner limits assumed): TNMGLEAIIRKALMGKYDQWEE
row,Structure (SMILES),EC50 [nM]
1,"CC(C)(C)Cn1cc([C@H](NS(=O)(=O)C2CC2)C(F)F)c2ccc(-c3nccnc3C#N)cc21 [Compound 48, (S)—N-(1-(6-(3-cyanopyrazin-2-yl)-1-neopentyl-1H-indol-3-yl)-2,2-difluoroethyl)cyclopropanesulfonamide]",100 to 1000
2,"CC(C)(C)Cn1cc([C@H](NS(=O)(=O)C2CC2)C(F)F)c2cc(F)c(-c3ncc(F)cc3C#N)cc21 [Compound 94, (S)—N-(1-(6-(3-cyano-5-fluoropyridin-2-yl)-5-fluoro-1-neopentyl-1H-indol-3-yl)-2,2-difluoroethyl)cyclopropanesulfonamide]",< 100
3,"CC(NS(=O)(=O)C1CC1)c1cn(CC(C)(C)C)c2cc(-c3cnccc3C#N)c(F)cc12 (single isomer, unassigned) [Compound 32, (R or S) N-(1-(6-(4-cyanopyridin-3-yl)-5-fluoro-1-neopentyl-1H-indol-3-yl)ethyl)cyclopropanesulfonamide]",< 100
4,"CC(C)(C)Cn1cc([C@H](NS(=O)(=O)C2CC2)C(F)F)c2ccc(-c3cccnc3C#N)cc21 [Compound 49, (S)—N-(1-(6-(2-cyanopyridin-3-yl)-1-neopentyl-1H-indol-3-yl)-2,2-difluoroethyl)cyclopropanesulfonamide]",< 100
5,"O=S(=O)(N[C@@H](c1cn(C2CCC2)c2cc(-c3ccc(F)cc3C(F)(F)F)c(F)cc12)C(F)F)C1CC1 [Compound 154, (S)—N-(1-(1-cyclobutyl-5-fluoro-6-(4-fluoro-2-(trifluoromethyl)phenyl)-1H-indol-3-yl)-2,2-difluoroethyl)cyclopropanesulfonamide]",< 100
6,"CC(C)(C)Cn1cc([C@H](NS(=O)(=O)C2CC2)C(F)F)c2cc(F)c(C3CCOCC3)cc21 [Compound 172, (S)—N-(2,2-difluoro-1-(5-fluoro-1-neopentyl-6-(tetrahydro-2H-pyran-4-yl)-1H-indol-3-yl)ethyl)cyclopropanesulfonamide]",< 100
7,"CC(NS(=O)(=O)C1CC1)c1cn(CC(C)(C)C)c2cc(-c3cnccc3Cl)c(F)cc12 (stereo not drawn) [Compound 73, N-[1-[6-(4-chloro-3-pyridyl)-1-(2,2-dimethylpropyl)-5-fluoro-indol-3-yl]ethyl]cyclopropanesulfonamide]",< 100
8,"CC(C)(C)Cn1cc([C@H](NS(=O)(=O)C2CC(F)C2)C(F)F)c2ccc(-c3cccnc3C(F)(F)F)cc21 (stereo partly drawn) [Compound 46, (S)—N-(2,2-difluoro-1-(1-neopentyl-6-(2-(trifluoromethyl)pyridin-3-yl)-1H-indol-3-yl)ethyl)-3-fluorocyclobutane-1-sulfonamide]",< 100
9,"CC(C)(C)Cn1cc([C@H](NS(=O)(=O)C2CC2)C(F)F)c2cc(F)c(-c3cc(F)cnc3C(F)F)cc21 [Compound 123, (S)—N-(1-(6-(2-(difluoromethyl)-5-fluoropyridin-3-yl)-5-fluoro-1-neopentyl-1H-indol-3-yl)-2,2-difluoroethyl)cyclopropanesulfonamide]",< 100
10,"CC(C)(C)Cn1cc([C@H](NS(=O)(=O)C2CC2)C(F)F)c2ccc(-c3cc(F)cnc3C#N)cc21 [Compound 86, (S)—N-(1-(6-(2-cyano-5-fluoropyridin-3-yl)-1-neopentyl-1H-indol-3-yl)-2,2-difluoroethyl)cyclopropanesulfonamide]",< 100
11,"CC(C)(C)Cn1cc([C@H](NS(=O)(=O)C2CC2)C(F)F)c2cc(F)c(C3=CCOCC3)cc21 [Compound 16, (S)—N-(1-(6-(3,6-dihydro-2H-pyran-4-yl)-5-fluoro-1-neopentyl-1H-indol-3-yl)-2,2-difluoroethyl)cyclopropanesulfonamide]",< 100
12,"Cc1ncc(F)cc1-c1cc2c(cc1F)c([C@H](NS(=O)(=O)C1CC1)C(F)F)cn2CC(C)(C)C [Compound 95, (S)—N-(2,2-difluoro-1-(5-fluoro-6-(5-fluoro-2-methylpyridin-3-yl)-1-neopentyl-1H-indol-3-yl)ethyl)cyclopropanesulfonamide]",< 100
13,"CC(C)(C)Cn1cc([C@H](NS(=O)(=O)C2CC2)C(F)F)c2cc(F)c(-c3c(C#N)cccc3C(F)F)cc21 [Compound 109, N-((1S)-1-(6-(2-cyano-6-(difluoromethyl)phenyl)-5-fluoro-1-neopentyl-1H-indol-3-yl)-2,2-difluoroethyl)cyclopropanesulfonamide]",< 100

# Next, values leading:
row,EC50 [nM],Structure (SMILES)
1,< 100,"CC(C)(C)Cn1cc([C@H](NS(=O)(=O)C2CC2)C(F)F)c2cc(F)c(-c3c(F)cccc3C(F)F)cc21 [Compound 116, N-((1S)-1-(6-(2-(difluoromethyl)-6-fluorophenyl)-5-fluoro-1-neopentyl-1H-indol-3-yl)-2,2-difluoroethyl)cyclopropanesulfonamide]"
2,< 100,"CC(C)(C)Cn1cc([C@H](NS(=O)(=O)C2CC2)C(F)F)c2ccc(-c3cnccc3C(F)(F)F)cc21 [Compound 79, (S)—N-(2,2-difluoro-1-(1-neopentyl-6-(4-(trifluoromethyl)pyridin-3-yl)-1H-indol-3-yl)ethyl)cyclopropanesulfonamide]"
3,< 100,CN(C)S(=O)(=O)N[C@@H](c1cn(CC(C)(C)C)c2cc(-c3ncc(F)cc3C(F)(F)F)ccc12)C(F)F [Compound 74]
4,< 100,O=S(=O)(N[C@@H](c1cn(C2CCC2)c2nc(-c3cccnc3C(F)(F)F)c(F)cc12)C(F)F)C1CC1 [Compound 147]
5,< 100,"Cc1ccnc(C(F)F)c1-c1cc2c(cc1F)c([C@H](NS(=O)(=O)C1CC1)C(F)F)cn2CC(C)(C)C [Compound 127, N-((1S)-1-(6-(2-(difluoromethyl)-4-methylpyridin-3-yl)-5-fluoro-1-neopentyl-1H-indol-3-yl)-2,2-difluoroethyl)cyclopropanesulfonamide]"
6,< 100,"CC(C)(C)Cn1cc([C@H](NS(=O)(=O)C2CC2)C(F)F)c2ccc(-c3ncccc3C(F)(F)F)cc21 [Compound 39, (S)—N-(2,2-difluoro-1-(1-neopentyl-6-(3-(trifluoromethyl)pyridin-2-yl)-1H-indol-3-yl)ethyl)cyclopropanesulfonamide]"
7,< 100,"CC(C)(C)Cn1cc([C@H](NS(=O)(=O)C2CC2)C(F)F)c2ccc(-c3ncc(F)cc3C(F)(F)F)cc21 [Compound 53, (S)—N-(2,2-difluoro-1-(6-(5-fluoro-3-(trifluoromethyl)pyridin-2-yl)-1-neopentyl-1H-indol-3-yl)ethyl)cyclopropanesulfonamide]"
8,< 100,"CC(C)(C)Cn1cc([C@H](NS(=O)(=O)C2CC2)C(F)F)c2cc(F)c(-c3ncc(F)cc3Cl)cc21 [Compound 93, (S)—N-(1-(6-(3-chloro-5-fluoropyridin-2-yl)-5-fluoro-1-neopentyl-1H-indol-3-yl)-2,2-difluoroethyl)cyclopropanesulfonamide]"
9,< 100,"Cc1cc(C(F)(F)F)c(-c2cc3c(cc2F)c([C@H](NS(=O)(=O)C2CC2)C(F)F)cn3CC(C)(C)C)cn1 [Compound 140, (S)—N-(2,2-difluoro-1-(5-fluoro-6-(6-methyl-4-(trifluoromethyl)pyridin-3-yl)-1-neopentyl-1H-indol-3-yl)ethyl)cyclopropanesulfonamide]"
10,< 100,"CC(C)(C)Cn1cc([C@H](NS(=O)(=O)C2CC2)C(F)F)c2ccc(-c3ncccc3C(F)F)cc21 [Compound 100, (S)—N-(1-(6-(3-(difluoromethyl)pyridin-2-yl)-1-neopentyl-1H-indol-3-yl)-2,2-difluoroethyl)cyclopropanesulfonamide]"
11,< 100,"CC(NS(=O)(=O)C1CC1)c1cn(CC(C)(C)C)c2cc(C3CCOCC3)ccc12 (single isomer, unassigned) [Compound 23, (R or S) N-(1-(1-neopentyl-6-(tetrahydro-2H-pyran-4-yl)-1H-indol-3-yl)ethyl)cyclopropanesulfonamide]"
12,< 100,"N#Cc1nccc(C(F)(F)F)c1-c1nc2c(cc1F)c([C@H](NS(=O)(=O)C1CC1)C(F)F)cn2C1CCC1 [Compound 160, N-((1S)-1-(6-(2-cyano-4-(trifluoromethyl)pyridin-3-yl)-1-cyclobutyl-5-fluoro-1H-pyrrolo[2,3-b]pyridin-3-yl)-2,2-difluoroethyl)cyclopropanesulfonamide]"
13,< 100,"CC(C)(C)Cn1cc([C@H](NS(=O)(=O)C2CC2)C(F)(F)F)c2cc(F)c(-c3cccnc3C(F)(F)F)cc21 [Compound 171, (S)—N-(2,2,2-trifluoro-1-(5-fluoro-1-neopentyl-6-(2-(trifluoromethyl)pyridin-3-yl)-1H-indol-3-yl)ethyl)cyclopropanesulfonamide]"
14,< 100,"O=S(=O)(N[C@@H](c1cn(C2CCC2)c2nc(-c3cc(Cl)cnc3C(F)(F)F)c(F)cc12)C(F)F)C1CC1 [Compound 165, (S)—N-(1-(6-(5-chloro-2-(trifluoromethyl)pyridin-3-yl)-1-cyclobutyl-5-fluoro-1H-pyrrolo[2,3-b]pyridin-3-yl)-2,2-difluoroethyl)cyclopropanesulfonamide]"
